Results: publication PMC12089509, “NorA Efflux Pump Inhibitors: Expanding SAR Knowledge of Pyrazolo[4,3‐c][1,2]benzothiazine 5,5‐Dioxide Derivatives” (Archiv Der Pharmazie, 2025)
Values after ≈ are worked out from the molar mass of the structure shown.

Legend:
[1] = system: Staphylococcus aureus SA-1199B; assay: MIC determination (broth microdilution) against SA-1199B; assay type: cell-based; conditions: SA1199B
From the text: (§1) In this study, the S. aureus strains SA‐1199B (overexpressing norA) and its isogenic parent SA‐1199 (wild type), the pair SA‐K1902 (norA‐depleted) and SA‐K2378 (complemented with a pCU1 plasmid harboring the norA promoting and coding region from SA‐1199B), were used to test EPI activity as described in a previous study. Furthermore, the S. aureus ATCC 29213 was used as the reference strain in MIC determination experiments.

[2] = system: S. aureus SA-1199 (wild type); assay: Synergistic assay with CPX against wild-type SA-1199; assay type: cell-based, Staphylococcus aureus; conditions: EPI at 3.13 µg/mL with CPX
From the text: (§2) This finding aligns with their mechanism of action, which involves the inhibition of NorA, which is only basally expressed in the wild‐type SA‐1199 strain.

[3] = MTT cytotoxicity assay on A549; assay type: cell-based; conditions: human, A549 cells; for viability at 72 h, 12.5 µg/mL: A549, 12.5 μg/mL; for viability at 72 h, 12.5 µg/mL / viability at 72 h, 25 µg/mL / viability at 72 h, 50 µg/mL / viability at 72 h, 100 µg/mL: read-out: Cytotoxicity (% cell viability); for viability at 72 h, 25 µg/mL: A549, 25 μg/mL; for viability at 72 h, 50 µg/mL: A549, 50 μg/mL; for viability at 72 h, 100 µg/mL: A549, 100 μg/mL
Protocol: The MTT assay was performed on two human ATCC cell lines, that is, […] (CCL‐185) and MCF7 (HTB‐22), to test the potential cytotoxic effect of the compounds, after 72 h exposure, as previously described. Each compound was tested at concentrations ranging from 12.5 to 100 μg/mL. Untreated cells were considered as controls. The percentage of viable cells was calculated as follows: % Cell viability = 100 × treated well absorbance/untreated control well absorbance. All assays were performed once in technical quadruplicate.

[4] = biological target: T1, S. aureus NorA efflux pump (SA-1199B strain, overexpresses the norA gene) (Staphylococcus aureus, UniProt P0A0J7); assay: EtBr efflux inhibition assay; assay type: cell-based; conditions: for inhibition at 50 µM: read-out: EtBr efflux inhibition (%), compound at 50 µM, SA-1199B
T1 construct: endogenous in cells; host or cells: S. aureus SA-1199B (overexpresses norA; isogenic parent SA-1199)
In short: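 The SA-1199B strain (norA-overexpressing, GrlA A116E) was preloaded with EtBr using 25 μM EtBr and 100 μM CCCP for 20 min at room temperature, then resuspended in CAMHB with or without 50 or 10 μM compound. Fluorescence (ex 485/em 645 nm) was followed for 5 min, and percent efflux inhibition was calculated relative to untreated cells.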

[5] = system: S. aureus SA-K1902 (norA-); assay: Checkerboard assay EPI/CPX against SA-K1902; assay type: cell-based, Staphylococcus aureus
Protocol: Checkerboard assays were carried out using SA‐K1902 and SA‐K2378 strains according to standard procedures.

[6] = system: S. aureus SA-K2378 (norA ++); assay: MIC evaluation against SA-K2378; assay type: cell-based, Staphylococcus aureus; conditions: Staphylococcus aureus
From the text: Conversely, interesting results were obtained against SA‐K2378, which overexpresses the norA gene (Table 2). […] This corroborates the hypothesis that their activity is strictly related to NorA EP inhibition.
as §1

[7] = system: Staphylococcus aureus SA-K2378 biofilm; assay type: cell-based; conditions: for Biofilm formation (%): CPX 1/4 X MIC + EPI 1,6 µg/ml; for reduction in biofilm formation: EPI at 1.6 µg/mL with CPX at ½ MIC, vs untreated control
From the text: The formation of biofilms is a significant contributor to the development of AMR [1, 26, 27]. This is due to the fact that biofilms provide a protective environment for bacteria, thereby rendering them more resilient to the effects of common antibacterial agents. Over the years, several investigations have been conducted to study the role of EPs in the various stages of microbial biofilm formation. However, a definitive answer regarding the potential role of EPs in this microbial pathway remains elusive. While some studies have reported a negative effect of certain EPs on biofilm formation, others have highlighted the promising role of EPIs in limiting biofilm formation and enhancing the efficacy of antibiotics under biofilm conditions.
The biofilm production by SA‐K1902 and SA‐K2378 strains was analyzed in flat 96‐well microtiter plates as previously described, with some modifications. […] The microplates were incubated at 37°C for 24 h in static conditions. After incubation, the biofilms were washed three times with distilled water, dried at 60°C for 1 h, and stained with 0,1% crystal violet for 10 min. After staining, the crystal violet was removed and the wells were washed three times with water, dried at 37°C for 30 min, and the bound crystal violet was solubilized with 96% ethanol in shaking conditions. At the end of the destaining, the absorbance (570 nm) of the solutions in each well was measured using the FLUOstar Omega plate reader (BMG‐LABTECH, Germany) to quantify the biofilm produced in each condition compared with the control (biofilm produced by the strain without any compound/antibiotic). Biofilm assays were performed in triplicate for each condition.

[8] = system: S. aureus SA-1199 (wild type); assay: MIC determination against wild-type SA-1199; assay type: cell-based; conditions: Staphylococcus aureus, compound alone
From the text: as §2

T1 sequence (P0A0J7 whole entry): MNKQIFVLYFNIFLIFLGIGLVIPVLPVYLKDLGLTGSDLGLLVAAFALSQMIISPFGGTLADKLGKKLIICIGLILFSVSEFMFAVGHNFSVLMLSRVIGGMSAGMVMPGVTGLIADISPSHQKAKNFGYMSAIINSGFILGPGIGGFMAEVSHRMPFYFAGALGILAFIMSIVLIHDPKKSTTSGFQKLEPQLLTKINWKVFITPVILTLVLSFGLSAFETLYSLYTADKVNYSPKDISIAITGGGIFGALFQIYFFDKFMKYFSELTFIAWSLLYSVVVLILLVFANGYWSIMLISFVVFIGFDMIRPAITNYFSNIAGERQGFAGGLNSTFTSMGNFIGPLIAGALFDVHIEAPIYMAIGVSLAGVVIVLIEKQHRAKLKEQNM

Compound	MIC [1]	synergistic effect with CPX [2]	viability at 72 h, 12.5 µg/mL [3]	viability at 72 h, 25 µg/mL [3]	viability at 72 h, 50 µg/mL [3]	viability at 72 h, 100 µg/mL [3]	inhibition at 50 µM [4]	CPX MIC ([5]; EPI at 0.2 µg/mL)	N° CPX MIC reduction ([5]; EPI at 0.2 µg/mL)	CPX MIC ([5]; EPI at 0.4 µg/mL)	N° CPX MIC reduction ([5]; EPI at 0.4 µg/mL)	CPX MIC ([5]; EPI at 0.8 µg/mL)	N° CPX MIC reduction ([5]; EPI at 0.8 µg/mL)	CPX MIC ([5]; EPI at 1.6 µg/mL)	N° CPX MIC reduction ([5]; EPI at 1.6 µg/mL)	CPX MIC ([5]; EPI at 3.13 µg/mL)	N° CPX MIC reduction ([5]; EPI at 3.13 µg/mL)	MIC [6]	Biofilm formation (%) [7]	reduction in biofilm formation [7]	further results
O=S1(=O)Nc2c(-c3ccc(Cl)cc3)nn(-c3ccccc3)c2-c2ccccc21 [Compound 3]	25 µg/mL (≈ 61.3 µM)	did not show any synergistic effect	94 ± 24%	99 ± 20%	101 ± 24%	34 ± 10%	7%	0.08 µg/mL	2	0.08 µg/mL	2	0.08 µg/mL	2	0.08 µg/mL	2	0.08 µg/mL	2	25 µg/mL (≈ 61.3 µM)	positive synergistic effect	83%	CPX MIC ([5]; EPI at 6.25 µg/mL): 0.08 µg/mL; N° CPX MIC reduction ([5]; EPI at 6.25 µg/mL): 2; CPX MIC ([5]; EPI at 12.5 µg/mL): 0.08 µg/mL; N° CPX MIC reduction ([5]; EPI at 12.5 µg/mL): 2; MIC [8]: > 50 µg/mL
CN1c2c(-c3ccc(Cl)cc3)n[nH]c2-c2ccccc2S1(=O)=O [Compound 10, 3‐(4‐Chlorophenyl)‐4‐methyl‐1,4‐dihydropyrazolo[4,3‐c][1,2]benzothiazine 5,5‐dioxide]	> 50 µg/mL	did not show any synergistic effect	97 ± 2%	45 ± 3%	7%	7 ± 2%	100%	0.08 µg/mL	2	0.08 µg/mL	2	0.08 µg/mL	2	0.08 µg/mL	2	0.08 µg/mL	2	12.5 µg/mL (≈ 36.1 µM)	untreated control‐like condition	54%	CC50 at 72 h ([3]; A549, MTT): ~25 µg/mL (≈ 72.3 µM); inhibition at 10 µM ([4]; read-out: EtBr efflux inhibition (%), compound at 10 µM, SA-1199B): 95%; MIC [8]: > 50 µg/mL
